Assay results as given in patent US7384788B2, “Regulator/promoter for tunable gene expression and metabolite sensing” (priority 2003, dated 2008).
Read-outs that look alike come from different tables or passages of the source.

Columns and labels:
[1] = tested on: yhcRQP-luxCDABE gene fusion; test: LuxArray bioluminescent response, strain DPD2411 (tolC- host); type: cell-based, E. coli; conditions: for Replica 1 normalized RLU / Replica 2 normalized RLU: LB medium
[2] = tested on: yhcRQP-luxCDABE gene fusion; test: Bioluminescence response in yhcS+ strain DPD2436 (MG1655 host); type: cell-based, E. coli; conditions: for Concentration of maximum response: strain DPD2436, LB pH 7.0; for treated RLU: strain DPD2436, at concentration of maximum response; for Ratio: strain DPD2436, treated RLU/control RLU
Text: A derivative of E. coli strain MG1655 (obtained from Prof. Douglas Berg, Washington University School of Medicine, St. Louis, […].) with the yhcS::TN<Kan> mutation was made by P1clr100Cm mediated transduction using phage grown on strain DPD2410 as a donor and selection for kanamycin resistance. […] Plasmid pDEW655 was moved to E. coli strains MG1655 and DPD2433 by transformation, selecting for Ampicillin resistance to generate strains DPD2436 and DPD2437, respectively. The bioluminescent response of these two strains to pHBA was tested. Aliquots (50 μl) of actively growing cultures at 37° C. in LB medium that had been previously diluted, and from overnight cultures in LB medium with 150 μg/ml Ampicillin were added to 50 μl of LB medium at pH 7.0 containing pHBA as the sodium salt form. Several concentrations of pHBA were tested.
Further characterization of the signals that trigger activation of YhcS, was done using the yhcRQP-luxCDABE gene fusion containing E. coli strains DPD2411 or DPD2436.

BenM = BenM (Acinetobacter baylyi, UniProt O68014); conditions: benzoic acid alone; cited from earlier work
[3] = tested on: lysU-luxCDABE gene fusion; conditions: for RLU at 100 minutes: lysU-luxCDABE, pH 7.0
Text: (§1) Three E. coli strains, each in the same host strain but carrying different, plasmid-borne, promoter-luxCDABE fusions were used. Strain DPD2411 contains a yhcRQP-luxCDABE gene fusion as described in Example 2. Strain DPD2084 contains a yciG-luxCDABE gene fusion that has been previously described. Strain DPD3282 contains a lysU-luxCDABE gene fusion that was part of the LuxA collection of gene fusions, described in Example 2. The plasmid in this strain, pDEW558, contains an E. coli chromosomal segment between nucleotides 4350990 and 4353107 according to the E. coli genomic sequence; the orientation of the chromosomal segment is such that the lysU promoter region controls expression of luxCDABE. Each of these three strains was grown overnight in Vogel-Bonner minimal medium with 0.4% glucose as the carbon source and supplemented with L-proline, L-lysine, uracil and 25 μg/ml Ampicillin. The overnight cultures were diluted into the same medium except lacking Ampicillin and incubated at 37° C. until in mid-exponential growth. Aliquots (50 μl) of these actively growing cultures were added to 50 μl of the same medium at pH 7.0 without Ampicillin but containing various concentrations of sodium acetate or sodium salicylate in the wells of a 96 well, white microplate (Microlite, Dynex Technologies). Immediately after adding the cell culture, the bioluminescence was quantitated in a microplate luminometer in the kinetic mode.

[4] = tested on: yciG-luxCDABE gene fusion; conditions: for RLU at 100 minutes: yciG-luxCDABE, pH 7.0
Text: as §1

[5] = tested on: yhcRQP-luxCDABE gene fusion; conditions: for RLU at 100 minutes: yhcRQP-luxCDABE, pH 7.0
Text: as §1

[6] = concentrations tested, 100 minutes

BenM, sequence (O68014 whole entry, the tested form may be a part): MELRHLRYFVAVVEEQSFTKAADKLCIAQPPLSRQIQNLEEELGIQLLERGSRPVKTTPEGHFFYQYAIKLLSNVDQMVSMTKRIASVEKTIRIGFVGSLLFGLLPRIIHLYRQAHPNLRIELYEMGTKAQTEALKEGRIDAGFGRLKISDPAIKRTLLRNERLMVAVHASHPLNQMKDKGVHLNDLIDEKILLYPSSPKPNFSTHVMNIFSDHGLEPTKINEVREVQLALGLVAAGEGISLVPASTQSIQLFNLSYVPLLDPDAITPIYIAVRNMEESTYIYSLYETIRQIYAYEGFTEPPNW

SMILES: O=C(O)C=Cc1ccc(O)cc1 [pHCA, para-hydroxycinnamic acid]
- Replica 1 normalized RLU ([1]; 5 mM pHCA, 0 min): 0.056 RLU
- Replica 2 normalized RLU ([1]; 5 mM pHCA, 0 min): 0.043 RLU
- Replica 1 normalized RLU ([1]; 5 mM pHCA, 45 min): 10.695 RLU
- Replica 2 normalized RLU ([1]; 5 mM pHCA, 45 min): 9.325 RLU
- Replica 1 normalized RLU ([1]; 5 mM pHCA, 90 min): 14.276 RLU
- Replica 2 normalized RLU ([1]; 5 mM pHCA, 90 min): 14.754 RLU
- Replica 1 normalized RLU ([1]; 5 mM pHCA, 135 min): 13.533 RLU
- Replica 2 normalized RLU ([1]; 5 mM pHCA, 135 min): 10.587 RLU
- Replica 1 normalized RLU ([1]; 10 mM pHCA, 0 min): 0.056 RLU
- Replica 2 normalized RLU ([1]; 10 mM pHCA, 0 min): 0.034 RLU
- Replica 1 normalized RLU ([1]; 10 mM pHCA, 45 min): 9.094 RLU
- Replica 2 normalized RLU ([1]; 10 mM pHCA, 45 min): 7.31 RLU
- Replica 1 normalized RLU ([1]; 10 mM pHCA, 90 min): 14.314 RLU
- Replica 2 normalized RLU ([1]; 10 mM pHCA, 90 min): 11.164 RLU
- Replica 1 normalized RLU ([1]; 10 mM pHCA, 135 min): 15.283 RLU
- Replica 2 normalized RLU ([1]; 10 mM pHCA, 135 min): 12.867 RLU
- upregulation of gene fusion lux-a.pk035.c7 in LuxArray profile ([1]; pHCA 10 mM and 5 mM, CA 8 mM and 4 mM): several hundred-fold upregulated
- bioluminescent response of the yhcRQP-luxCDABE gene fusion (in words) ([1]; time points other than the zero time point): dramatic upregulation

SMILES: O=C([O-])c1ccccc1.[Na+] [Sodium benzoate]
- Concentration of maximum response ([2]; Experiment code B): 6.2 mM
- treated RLU ([2]; Experiment code B): 3.759 RLU
- Ratio ([2]; Experiment code B): 13
- Concentration of maximum response ([2]; Experiment code C): 12.5 mM
- treated RLU ([2]; Experiment code C): 8.093 RLU
- Ratio ([2]; Experiment code C): 12

SMILES: O=C(O)c1ccccc1 [Benzoic acid, benzoic acid]
- induction of BenM activity (BenM): minimal, if any, induction

SMILES: O=C([O-])c1ccccc1O.[Na+] [Sodium salicylate]
- Concentration of maximum response ([2]; Experiment code D): 6.2 mM
- treated RLU ([2]; Experiment code D): 14.703 RLU
- Ratio ([2]; Experiment code D): 77
- activation of acid responsive lysU-luxCDABE gene fusion (in words) [3, 6]: did not increase expression
- RLU at 100 minutes ([3]; 0.6 mM salicylate): 1.3 RLU
- RLU at 100 minutes ([3]; 5.0 mM salicylate): 0.89 RLU
- activation of acid responsive yciG-luxCDABE gene fusion (in words) [4, 6]: did not increase expression
- RLU at 100 minutes ([4]; 0.6 mM salicylate): 0.19 RLU
- RLU at 100 minutes ([4]; 5.0 mM salicylate): 0.13 RLU
- activation of expression of yhcRQP-luxCDABE (in words) [5, 6]: upregulated expression
- RLU at 100 minutes ([5]; 0.6 mM salicylate): 7.9 RLU
- RLU at 100 minutes ([5]; 5.0 mM salicylate): 26.0 RLU
